How the values were obtained:
[1] = molecular target: T1, EphA1 (Homo sapiens, UniProt P21709); test: Eph receptor activation in HEK 293 cells overexpressing EphA1; format: cell-based; settings: HEK 293 cells overexpressing EphA1, same concentrations, 60 minutes
T1 construct: expressed in transfected cells; host or cells: HEK 293
T1 sequence (P21709 26-976): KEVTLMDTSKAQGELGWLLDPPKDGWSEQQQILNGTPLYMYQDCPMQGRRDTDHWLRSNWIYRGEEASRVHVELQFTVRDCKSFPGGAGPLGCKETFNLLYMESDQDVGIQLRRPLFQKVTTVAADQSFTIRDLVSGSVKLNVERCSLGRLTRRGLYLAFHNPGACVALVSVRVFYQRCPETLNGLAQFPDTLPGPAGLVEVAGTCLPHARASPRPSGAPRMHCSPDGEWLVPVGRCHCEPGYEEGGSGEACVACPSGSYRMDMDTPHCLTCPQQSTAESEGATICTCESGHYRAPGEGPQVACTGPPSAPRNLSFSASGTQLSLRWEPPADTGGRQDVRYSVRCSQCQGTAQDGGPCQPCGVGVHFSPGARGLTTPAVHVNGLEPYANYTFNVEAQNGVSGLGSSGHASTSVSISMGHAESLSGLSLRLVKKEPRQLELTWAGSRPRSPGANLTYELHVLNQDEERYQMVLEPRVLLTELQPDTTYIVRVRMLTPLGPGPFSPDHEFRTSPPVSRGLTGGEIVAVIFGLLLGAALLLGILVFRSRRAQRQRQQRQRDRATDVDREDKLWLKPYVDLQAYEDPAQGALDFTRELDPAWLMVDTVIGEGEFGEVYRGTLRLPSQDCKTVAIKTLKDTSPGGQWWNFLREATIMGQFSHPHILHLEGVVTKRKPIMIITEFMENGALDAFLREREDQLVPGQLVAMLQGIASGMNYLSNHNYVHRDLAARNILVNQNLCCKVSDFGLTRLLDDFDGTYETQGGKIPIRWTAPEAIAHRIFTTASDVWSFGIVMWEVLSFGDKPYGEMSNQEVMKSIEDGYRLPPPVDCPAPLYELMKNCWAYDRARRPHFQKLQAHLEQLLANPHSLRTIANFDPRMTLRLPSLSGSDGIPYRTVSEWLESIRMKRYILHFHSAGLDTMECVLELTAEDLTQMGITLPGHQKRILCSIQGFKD
Description: Cells were plated in 24-well dishes at a density of 100,000 cells/well and grown for 24 hours prior to stimulation with appropriate compounds and ephrins for the given amounts of time. Compounds were prepared in DMSO at 500 times the final concentrations and 0.2% DMSO was used as vehicle control. Following treatment, cells were lysed directly in SDS Gel Loading Buffer and immunoblotted as described previously. […] For this purpose, HEK 293 cell lines overexpressing EphA1, EphA2, EphA3, EphA4, and EphB3 kinases were utilized.

[2] = molecular target: T2, EphB4 (Homo sapiens, UniProt P54760); test: Activation of endogenous EphB4 in HEK 293 vector control cells; format: cell-based
T2 construct: host or cells: HEK 293 vector control cells
T2 sequence (P54760 16-987): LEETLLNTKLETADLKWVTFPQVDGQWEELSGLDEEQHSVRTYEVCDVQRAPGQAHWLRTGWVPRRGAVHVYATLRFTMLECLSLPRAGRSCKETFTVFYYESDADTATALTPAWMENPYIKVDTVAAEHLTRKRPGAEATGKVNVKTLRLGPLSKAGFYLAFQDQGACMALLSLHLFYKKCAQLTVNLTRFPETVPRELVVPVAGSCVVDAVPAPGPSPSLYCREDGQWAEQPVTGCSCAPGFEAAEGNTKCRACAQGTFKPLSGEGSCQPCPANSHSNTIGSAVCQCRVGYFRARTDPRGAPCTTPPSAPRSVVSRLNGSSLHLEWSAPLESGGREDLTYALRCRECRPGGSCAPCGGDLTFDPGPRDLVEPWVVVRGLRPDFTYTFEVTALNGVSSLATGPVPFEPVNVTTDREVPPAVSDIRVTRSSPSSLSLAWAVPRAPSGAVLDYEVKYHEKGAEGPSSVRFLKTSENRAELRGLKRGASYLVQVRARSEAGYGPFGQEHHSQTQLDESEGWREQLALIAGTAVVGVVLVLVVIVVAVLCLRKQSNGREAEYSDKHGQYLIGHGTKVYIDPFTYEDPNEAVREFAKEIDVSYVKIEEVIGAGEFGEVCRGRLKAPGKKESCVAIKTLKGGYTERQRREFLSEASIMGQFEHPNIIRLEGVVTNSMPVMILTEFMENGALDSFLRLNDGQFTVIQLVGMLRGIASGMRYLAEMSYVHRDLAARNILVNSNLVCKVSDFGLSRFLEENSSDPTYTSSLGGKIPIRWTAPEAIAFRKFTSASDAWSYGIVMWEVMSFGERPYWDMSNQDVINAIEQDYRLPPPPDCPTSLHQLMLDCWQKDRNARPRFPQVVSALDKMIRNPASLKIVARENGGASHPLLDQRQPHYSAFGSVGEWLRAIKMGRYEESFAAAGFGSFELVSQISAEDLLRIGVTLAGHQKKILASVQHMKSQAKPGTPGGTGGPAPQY

[3] = test system: PC-3 cells; test: Cell rounding analysis; format: cell-based, human; settings: 50 µM, 30 or 60 min
Excerpt: As we first reported in 2000, EphA2 activation on PC-3 cells by ephrin-A1 induced rapid cell rounding, a phenomenon that is correlated with inhibition of integrin function.

[4] = test system: DU145 and PC-3 cell xenografts; settings: previously shown, independent of α1-adrenoreceptor; cited from earlier work
[5] = molecular target: EphA2 (Homo sapiens, UniProt P29317); test: EphA2 activation in HEK 293-A2 cells (pEphA/B immunoblot); format: cell-based; design: expressed in transfected cells; host or cells: HEK 293 (HEK 293-A2)
Description: Cells were plated in 24-well dishes at a density of 100,000 cells/well and grown for 24 hours prior to stimulation with appropriate compounds and ephrins for the given amounts of time. Compounds were prepared in DMSO at 500 times the final concentrations and 0.2% DMSO was used as vehicle control. Following treatment, cells were lysed directly in SDS Gel Loading Buffer and immunoblotted as described previously. Immunoprecipitation and immunofluorescence staining was performed as described. For immunoprecipitation, 300,000 cells/well were plated in 6-well dishes and lysed in modified RIPA Buffer (20 mM Tris-HCl pH 7.4, 20 mM NaF, 150 mM NaCl, 10% glycerol, 0.1% SDS, 0.5% DCA, 2 mM EDTA, 1% Triton X-100) following treatment. Either […] of ephrin-A1-Fc, or […] of EphA2 mouse monoclonal antibody (Clone D7, Millipore) were used, and mouse IgG was used as a negative control for EphA2 IP.
To determine whether the EphA2 agonist activity of doxazosin is cell-context specific, we evaluated the effects of doxazosin on additional cell types. We first utilized HEK 293 cells overexpressing EphA2 (HEK 293-A2) that we described previously. […] Next we tested PC-3 cells that express high levels of endogenous EphA2 receptor. […] We next evaluated the time-course of activation in both MDA-231-A2 and HEK 293-A2 cells upon treatment with a single 50 μM dose of doxazosin.

Sequence of EphA2 (P29317 24-976): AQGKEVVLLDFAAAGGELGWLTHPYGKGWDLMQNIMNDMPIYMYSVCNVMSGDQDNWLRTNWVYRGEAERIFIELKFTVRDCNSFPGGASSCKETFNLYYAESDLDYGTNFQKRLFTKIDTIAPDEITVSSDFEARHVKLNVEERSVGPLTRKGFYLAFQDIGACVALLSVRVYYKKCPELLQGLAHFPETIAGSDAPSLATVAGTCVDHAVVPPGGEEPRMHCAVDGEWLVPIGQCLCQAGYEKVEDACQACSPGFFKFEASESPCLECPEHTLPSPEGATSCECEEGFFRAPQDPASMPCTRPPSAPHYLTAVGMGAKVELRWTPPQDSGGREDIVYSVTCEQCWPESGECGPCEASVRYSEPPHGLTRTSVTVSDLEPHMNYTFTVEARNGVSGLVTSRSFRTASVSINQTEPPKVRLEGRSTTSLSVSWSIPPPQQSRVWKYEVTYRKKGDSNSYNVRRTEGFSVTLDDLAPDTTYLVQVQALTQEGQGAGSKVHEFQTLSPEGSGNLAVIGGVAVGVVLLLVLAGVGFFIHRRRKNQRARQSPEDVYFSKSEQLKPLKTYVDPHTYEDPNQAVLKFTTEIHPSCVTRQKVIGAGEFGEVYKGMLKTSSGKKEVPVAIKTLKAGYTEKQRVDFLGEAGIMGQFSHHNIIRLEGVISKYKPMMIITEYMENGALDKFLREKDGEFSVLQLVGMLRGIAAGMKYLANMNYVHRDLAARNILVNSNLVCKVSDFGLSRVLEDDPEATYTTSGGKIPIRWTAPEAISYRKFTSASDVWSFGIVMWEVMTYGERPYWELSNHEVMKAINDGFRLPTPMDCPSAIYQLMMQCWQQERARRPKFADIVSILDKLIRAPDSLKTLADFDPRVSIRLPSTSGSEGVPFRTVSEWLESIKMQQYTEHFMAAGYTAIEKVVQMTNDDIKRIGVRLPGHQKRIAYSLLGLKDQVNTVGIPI

## COc1cc2nc(N3CCN(C(=O)C4COc5ccccc5O4)CC3)nc(N)c2cc1OC (stereo not shown) [doxazosin]
[1]
  EphA1 activation, Eph receptor panel: no activation of EphA1
[2]
  endogenous EphB4 activation: not activated
[3]
  cell rounding: caused rounding of PC-3 cells
[4]
  subcutaneous growth of DU145 and PC-3 cell xenografts: moderately decrease subcutaneous growth
[5]; HEK 293-A2 cells, 30 minutes
  concentration at which significant EphA2 activation starts: 25 µM
[5]; HEK 293-A2 cells, single 50 μM dose
  time at which EphA2 activation became evident: 10 min
[5]; HEK 293 cells overexpressing EphA2, 60 minutes
  EphA2 kinase activation, Eph receptor panel: activated both EphA2 and EphA4 kinases

Source: patent US11814372B2, “Agonists of EPHA and their uses” (CASE WESTERN RESERVE UNIVERSITY, priority 2017, dated 2023)
